Molecular target: T1, E-selectin (Homo sapiens, UniProt P16581)
T1 sequence (P16581 whole entry): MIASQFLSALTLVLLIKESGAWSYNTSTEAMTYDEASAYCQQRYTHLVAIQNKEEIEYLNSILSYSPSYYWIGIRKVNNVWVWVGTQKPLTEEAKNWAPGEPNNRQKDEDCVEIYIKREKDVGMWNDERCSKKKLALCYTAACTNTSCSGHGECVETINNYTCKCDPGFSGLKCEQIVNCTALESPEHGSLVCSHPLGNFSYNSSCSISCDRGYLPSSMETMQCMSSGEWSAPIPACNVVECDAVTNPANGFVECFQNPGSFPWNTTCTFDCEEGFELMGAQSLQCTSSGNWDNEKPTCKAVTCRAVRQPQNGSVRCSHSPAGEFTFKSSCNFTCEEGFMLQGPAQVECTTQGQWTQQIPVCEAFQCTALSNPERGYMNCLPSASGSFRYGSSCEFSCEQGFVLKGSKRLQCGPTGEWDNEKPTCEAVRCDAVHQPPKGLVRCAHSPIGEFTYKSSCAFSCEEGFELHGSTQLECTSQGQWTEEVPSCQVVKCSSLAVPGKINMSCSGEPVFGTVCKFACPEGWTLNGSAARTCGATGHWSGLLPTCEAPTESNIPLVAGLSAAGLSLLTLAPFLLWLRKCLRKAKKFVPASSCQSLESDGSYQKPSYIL
Assay: Compound was evaluated for the Selectin E binding activity.

`CC(=O)N[C@H]1[C@H]([C@H](O)[C@H](O)CO)O[C@@](O[C@H]2[C@@H](O)[C@@H](CO)O[C@@H](O[C@@H]([C@H](O[C@@H]3O[C@@H](C)[C@@H](O)[C@@H](O)[C@@H]3O)[C@H](C=O)NC(C)=O)[C@H](O)CO)[C@@H]2O)(C(=O)O)C[C@@H]1O` [SIALYL LEWIS X] was tested, and the IC50 was > 10 µM.

From ChEMBL document CHEMBL1130612, “Exploration of beta-turn scaffolding motifs as components of sialyl Le(X) mimetics and their relevance to P-selectin” (Bioorg Med Chem Lett, 1998)
